Experimental data: US10557853B2 (priority 2012, dated 2020)
“And” between values parts separate entries of the source, which are not always exact repeats. Equal values may be shown once. “Also recorded” adds a separate entry of the source.

Key:
GST-M1-1 [1] = target: T1, GST-M1-1 (Homo sapiens, UniProt P09488); experiment: Displacement (inhibitor screening) assay with sensor 14-GST-M1-1 complex; type: binding; details: 50 μM drug, sensor 14 90 nM, GST M1-1 90 nM
T1 construct: purchased Oxford Biomedical Research (a second source is given: Israel Structural Proteomics Center, recombinant)
T1 sequence (P09488 2-218 limits assumed): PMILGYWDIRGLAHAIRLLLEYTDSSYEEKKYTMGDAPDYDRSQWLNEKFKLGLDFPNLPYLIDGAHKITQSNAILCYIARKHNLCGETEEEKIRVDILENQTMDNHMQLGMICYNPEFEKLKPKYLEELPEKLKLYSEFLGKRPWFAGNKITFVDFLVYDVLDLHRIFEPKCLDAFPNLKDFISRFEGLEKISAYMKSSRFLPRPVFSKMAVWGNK
Procedure: A possible advantage of such systems, however, is that they abrogate the need for using labelled substrates and following the reaction kinetics. Such sensors could, therefore, complement other label-free enzyme assays that rely on indicator displacement mechanisms.
The sensor 14-GST-M1-1 complex was treated with a random library of known drugs.

dsDNA = experiment: Fluorescence response to double-stranded DNA; type: binding; details: for fluorescence response to addition of dsDNA (FIG. 21e): 100 nM sensor or TO, 400 nM dsDNA, phosphate buffer 5 mM pH 6.5
Procedure: Different 10 derivatives (Table 3) were incubated with increasing concentrations of double-stranded DNA and compared their fluorescence emission prior to and after their incubation in PBS buffer, pH=6.5 (FIG. 9).

[2] = test system: MDA-MB-231 cancer cells, overexpressing GST-P1-1; experiment: Live cell fluorescence imaging, MDA-MB-231; type: cell-based; details: 2 μM, 15 minutes at 37° C.
Procedure: GST-P1-1 is a cytosolic protein, whereas DNA is located in the nucleouse.
MDA-MB-231 cells were maintained in RPMI supplemented with 10% FBS, L-glutamine, and antibiotics. […] Cell images were analyzed using imageJ.

GST-M1-1 [3] = target: T1, GST-M1-1; experiment: GST sensing: fluorescence response to GST-M1-1; type: binding; details: 100 nM sensor
Procedure: (§1) The most efficient TOPI sensors were identified (FIG. 12) by measuring the fluorescence of the six sensors (100 nM) in the absence and presence of their targets (90 nM) (FIG. 13).
(§2) Based on the obtained binding constants (FIG. 15), a concentration of 100 nM sensor was chosen for GST sensing. This concentration should ensure strong binding and a high S/N ratio.
Two different mixtures of GST isoforms were prepared: one that contained all the GST isoforms (20 nM of each GST, in total 160 nM) (A1-1k2-2, P1-1, M1-1, T1-1, O1-1, Z1-1, and K1-1) and the second mixture contained all the GST isoforms except GST-M1-1.

GST-P1-1 [4] = target: T2, GST-P1-1 (Homo sapiens, UniProt P09211); experiment: GST sensing: fluorescence response to GST-P1-1; type: binding; details: 100 nM sensor
T2 construct: purchased Oxford Biomedical Research (a second source is given: Israel Structural Proteomics Center, recombinant)
T2 sequence (P09211 2-210 limits assumed): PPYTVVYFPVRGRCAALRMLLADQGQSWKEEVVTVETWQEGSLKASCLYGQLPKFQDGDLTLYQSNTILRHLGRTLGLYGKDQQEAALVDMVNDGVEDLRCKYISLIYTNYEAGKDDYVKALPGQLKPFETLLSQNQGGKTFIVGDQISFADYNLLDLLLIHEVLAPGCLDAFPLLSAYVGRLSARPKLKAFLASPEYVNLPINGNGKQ
Procedure: as §1, §2

GST-A1-1 = target: T3, GST-A1-1 (Homo sapiens, UniProt P08263); experiment: GST sensing: fluorescence response to GST-A1-1; type: binding; details: 100 nM sensor, 90 nM isozyme
T3 construct: purchased Oxford Biomedical Research (a second source is given: Israel Structural Proteomics Center, recombinant)
T3 sequence (P08263 2-222 limits assumed): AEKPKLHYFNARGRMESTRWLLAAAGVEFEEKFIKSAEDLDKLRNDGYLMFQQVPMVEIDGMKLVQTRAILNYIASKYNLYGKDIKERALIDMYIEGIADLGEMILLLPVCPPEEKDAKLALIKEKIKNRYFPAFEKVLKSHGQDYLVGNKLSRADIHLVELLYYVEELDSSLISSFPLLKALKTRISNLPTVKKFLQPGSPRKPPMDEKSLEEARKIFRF
Procedure: as §1, §2

GST-A2-2 [5] = target: T4, GST-A2-2 (Homo sapiens, UniProt P09210); experiment: GST sensing: fluorescence response to GST-A2-2; type: binding; details: 100 nM sensor, 90 nM isozyme
T4 construct: purchased Oxford Biomedical Research (a second source is given: Israel Structural Proteomics Center, recombinant)
T4 sequence (P09210 2-222 limits assumed): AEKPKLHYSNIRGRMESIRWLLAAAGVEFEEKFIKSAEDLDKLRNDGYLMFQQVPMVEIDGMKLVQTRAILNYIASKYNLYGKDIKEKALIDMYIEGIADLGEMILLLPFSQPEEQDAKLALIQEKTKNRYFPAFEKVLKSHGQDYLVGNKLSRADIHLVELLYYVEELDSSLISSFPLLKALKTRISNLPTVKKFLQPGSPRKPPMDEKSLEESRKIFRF
Procedure: as §1, §2

GST-P1-1 [6] = target: T2, GST-P1-1; experiment: Fluorescence binding study, dissociation constant with GST-P1-1; details: fluorescence titration, phosphate buffer 5 mM pH 6.5; read-out: approximate dissociation constant Kd, GST-P1-1
Procedure: The approximate dissociation constants were determined for GST-M1-1 and GST-P1-1. For these experiments, the concentration of the sensor was chosen according to the enzymatic assays (Ki values, FIG. 18, 19). It was chosen to be lower than the Ki (expected Kd), but such that would also generate a detectable and reproducible emission signal in the plate reader. […] The data were analyzed using Graphpad Prism 6.0 and fitted to the equation: Y=Bmax·X/(kd+X) where Bmax is the maximum binding and X is the concentration of protein.

GST-P1-1 [7] = target: T2, GST-P1-1; experiment: GST kinetic measurements and inhibitory constants (CDNB/GSH), GST-P1-1; type: biochemical; details: Morrison fit; GSH 3 mM, CDNB 1.5 mM; read-out: approximate inhibition constant Ki, GST-P1-1
Procedure: (§3) (FIGS. 16- and 19). The concentrations of different GSTs, GSH, and CDNB were 20 nM, 350 μM, and 700 μM, respectively. The GST activity was measured spectrophotometrically using chloro-2,4-dinitrobenzene (CDNB) and GSH as substrates, in phosphate buffer (10 mM, pH 6.5). In a typical experiment, GST and sensors 14 or 140 were incubated for 10 min at 25° C. and then GSH and CDNB were subsequently added. The formation of S-(2,4-dinitrophenyl)-glutathione was monitored using the microplate reader at λ=340 nm. […] The concentrations of GSH and CDNB were 3 mM and 1.5 mM, respectively. The Km values were determined using 20 nM of each GST isoform, 3 mM GSH, and variable CDNB concentrations (50 μM-2 mM). Data were fit to the Michaelis-Menten equation using Sigmaplot version 12.0 statistical software (Systat) to obtain the Km values.
(§4) The data were analyzed using Graphpad Prism 6.0 and fitted to the Morrison equation for tight binding substrates (FIG. 18 and FIG. 19(b,c)).
(§5) [formula] where Y is the enzyme activity, X is different concentrations of inhibitor (compound 14 or 140), E is the enzyme concentration, S is the concentration of substrate, Km is the Michaelis-Menten constant determined in an experiment without inhibitor, and V0 is the initial velocity.

GST-A2-2 [8] = target: T4, GST-A2-2; experiment: GST kinetic measurements and inhibitory constants (CDNB/GSH), GST-A2-2; type: biochemical; details: Morrison fit; GSH 3 mM, CDNB 1.5 mM; read-out: approximate inhibition constant Ki, GST-A2-2
Procedure: as §3, §4, §5

avidin (Av) = avidin (Av) (Gallus gallus, UniProt P02701); experiment: Av sensing: fluorescence response of TOPI sensors; type: binding; details: 100 nM sensor, 90 nM Av; for enhancement in fluorescence emission upon addition of Av: phosphate buffer 15 mM pH 7.3
Chain of avidin (Av) (P02701 25-152): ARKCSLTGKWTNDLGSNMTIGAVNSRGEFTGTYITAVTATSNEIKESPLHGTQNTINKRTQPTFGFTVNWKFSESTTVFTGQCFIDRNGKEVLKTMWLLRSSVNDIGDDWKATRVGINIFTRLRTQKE
Procedure: as §1
(§6) Fluorescence values were recorded immediately after addition of the proteins (FIGS. 12d and 13b).

streptavidin (SAv) = streptavidin (SAv) (Streptomyces avidinii, UniProt P22629); experiment: SAv sensing: fluorescence response of TOPI sensors; type: binding; details: 100 nM sensor, 90 nM SAv
Chain of streptavidin (SAv) (P22629 25-183): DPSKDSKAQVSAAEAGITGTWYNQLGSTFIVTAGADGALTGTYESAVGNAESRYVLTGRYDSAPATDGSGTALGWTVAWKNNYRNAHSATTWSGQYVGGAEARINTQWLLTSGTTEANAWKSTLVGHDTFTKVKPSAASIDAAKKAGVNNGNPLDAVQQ
Procedure: as §1, §6

AChE [9] = target: T5, AChE (Tetronarce californica, UniProt P04058); experiment: AChE sensing: fluorescence response of TOPI sensors; type: binding; details: 100 nM sensor, 90 nM AChE
T5 construct: gift from Prof; Israel Silman Lab (Weizmann Institute of Science)
T5 sequence (P04058 22-564): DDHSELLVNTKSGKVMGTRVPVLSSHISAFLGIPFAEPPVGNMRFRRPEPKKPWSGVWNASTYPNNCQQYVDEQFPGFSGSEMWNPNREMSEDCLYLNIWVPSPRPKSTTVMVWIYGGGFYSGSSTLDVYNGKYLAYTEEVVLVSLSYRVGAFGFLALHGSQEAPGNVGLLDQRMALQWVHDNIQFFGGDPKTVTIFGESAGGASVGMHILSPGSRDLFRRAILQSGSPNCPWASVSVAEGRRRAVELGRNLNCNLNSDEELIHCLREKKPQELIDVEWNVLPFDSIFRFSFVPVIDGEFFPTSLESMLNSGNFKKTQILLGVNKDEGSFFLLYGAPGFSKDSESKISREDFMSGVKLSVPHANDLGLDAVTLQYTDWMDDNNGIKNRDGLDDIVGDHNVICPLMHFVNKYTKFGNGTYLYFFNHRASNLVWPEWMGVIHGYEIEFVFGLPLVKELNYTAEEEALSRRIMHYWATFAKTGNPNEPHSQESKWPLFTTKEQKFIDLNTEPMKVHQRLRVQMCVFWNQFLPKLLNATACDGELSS
Procedure: Fluorescence values were recorded immediately after addition of the proteins (FIGS. 12a and 13a).

AChE [10] = target: T5, AChE; experiment: AChE kinetic measurements (Ellman method); type: biochemical; details: for inhibition of AChE activity: 8 pM AChE, sensor 36 50 nM, sensor 37 2 μM
Procedure: The AChE activity was measured spectrophotometrically using 5,5′-dithiobis(2-nitrobenzoic acid) (DTNB) and acetylthiocholine iodide as substrates, in phosphate buffer (50 mM, pH 8.0). […] The final concentrations of AChE, DTNB, and acetylthiocholine iodide were 8 pM, 0.4 mM, and 0.4 mM, respectively.

healthy MCF-10A cells = experiment: Live cell fluorescence imaging, MCF-10A; type: cell-based; details: 2 μM

## C=C(CC)C(=O)c1ccc(OCC(=O)O)c(Cl)c1Cl [EA, Ethacrynic acid]
GST-M1-1 [1]
  displacement of sensor 14 from GST-M1-1 (reduction in emission): selective identification

## CN1C(=Cc2cc[n+](C)c3ccccc23)Sc2ccccc21 [TO, Thiazole Orange, reference compound]
dsDNA
  fluorescence response to addition of dsDNA (FIG. 21e): strong fluorescence signal
[2]
  localization of fluorescence in live MDA-MB-231 cells: strong green emission mainly from the nucleus

## CCCCCCSC[C@H](NC(=O)CC[C@H](N)C(=O)O)C(=O)NCC(=O)O [s-hexyl GSH]
GST-M1-1 [1]
  displacement of sensor 14 from GST-M1-1 (reduction in emission): selective identification

## C=C(CC)C(=O)c1ccc(OCC(=O)NCCCn2cc(CNC(=O)OCCCN3C=C/C(=C\c4sc5ccccc5[n+]4CCCOC(=O)NCc4cn(CCCNC(=O)COc5ccc(C(=O)C(=C)CC)c(Cl)c5Cl)nn4)c4ccccc43)nn2)c(Cl)c1Cl [sensor 14]
GST-M1-1 [3]; 90 nM GST-M1-1, phosphate buffer 5 mM pH 6.5, recorded immediately
  fluorescence enhancement in the presence of GST-M1-1: 55 fold
GST-M1-1 [3]; GST-M1-1 20 nM plus seven additional GSTs 20 nM each
  detection of GST-M1-1 in a mixture of GST isozymes: selective detection of GST-M1-1 in a mixture of isoforms
GST-P1-1 [4]; 90 nM GST P1-1, phosphate buffer 5 mM pH 6.5
  time course of emission in the presence of GST-P1-1: slowly increased over a period of 2 hours
GST-A1-1
  fluorescence detection of GST-A1-1: could not be detected
GST-A2-2 [5]
  fluorescence detection of GST-A2-2: could not be detected
GST-P1-1 [6]
  Kd: 38 nM
GST-P1-1 [7]
  Ki: 49 nM
GST-A2-2 [8]
  Ki: 20 nM
dsDNA
  fluorescence response to addition of dsDNA (FIG. 21e): negligible fluorescence responses; also recorded: did not exhibit any change in its fluorescence at 540 nm
dsDNA; 500 nM TO derivative, 100-900 nM dsDNA, PBS pH 6.5, emission 530 nm
  change in fluorescence upon addition of dsDNA (Example 3): did not exhibit any change in its fluorescence at 530 nm

## O=C(CCCCC1SCC2NC(=O)NC21)NCCOCCOCCNC(=O)CCN1C=C/C(=C\c2sc3ccccc3[n+]2CCC(=O)NCCOCCOCCNC(=O)CCCCC2SCC3NC(=O)NC32)c2ccccc21.[I-] (centres unmarked) [sensor 34]
Avidin (Av)
  fluorescence response to Av: strongly
  enhancement in fluorescence emission upon addition of Av: 16 fold
Streptavidin (SAv)
  fluorescence response to SAv: weakly; also recorded: hardly detected
dsDNA
  fluorescence response to addition of dsDNA (FIG. 21e): negligible fluorescence responses

## O=C(CCCCC1SCC2NC(=O)NC21)NCCNC(=O)CCN1C=C/C(=C\c2sc3ccccc3[n+]2CCC(=O)NCCNC(=O)CCCCC2SCC3NC(=O)NC32)c2ccccc21.[I-] (centres unmarked) [sensor 35]
Avidin (Av)
  fluorescence response to Av: strongly
  enhancement in fluorescence emission upon addition of Av: 7 fold
Streptavidin (SAv)
  fluorescence response to SAv: weakly; also recorded: hardly detected

## O=C(CCN1C=C/C(=C\c2sc3ccccc3[n+]2CCC(=O)NCCCCCCNc2c3c(nc4ccccc24)CCCC3)c2ccccc21)NCCCCCCNc1c2c(nc3ccccc13)CCCC2.[I-] [sensor 36]
AChE [9]
  detection of AChE: could detect AChE
AChE [9]; phosphate buffer 20 mM pH 8
  enhancement in fluorescence emission upon addition of AChE: 22 fold
AChE [10]
  inhibition of AChE activity: strong bivalent inhibitor; also recorded: full inhibition at low nanomolar concentration
AChE [10]; competitive inhibition fit, acetylthiocholine iodide substrate, read-out: approximate inhibition constant Ki, AChE
  Ki: 0.32 nM and 0.31 nM

## O=C(CCN1C=C/C(=C\c2sc3ccccc3[n+]2CCC(=O)NCCNc2c3c(nc4ccccc24)CCCC3)c2ccccc21)NCCNc1c2c(nc3ccccc13)CCCC2.[I-] [sensor 37]
AChE [9]
  detection of AChE: could detect AChE
AChE [10]
  inhibition of AChE activity: inhibited the AChE, activity only at 2 μM

## C=C(CC)C(=O)c1ccc(OCC(=O)NCCNC(=O)CCN2C=C/C(=C\c3sc4ccccc4[n+]3CCC(=O)NCCNC(=O)COc3ccc(C(=O)C(=C)CC)c(Cl)c3Cl)c3ccccc32)c(Cl)c1Cl [sensor 140, (E)-3-(3-((2-(2-(2,3-dichloro-4-(2-methylenebutanoyl)phenoxy)acetamido)ethyl)amino)-3-oxopropyl)-2-((1-(3-((2-(2-(2,3-dichloro-4-(2-methylenebutanoyl)phenoxy)acetamido)ethyl)amino)-3-oxopropyl)quinolin-4(1H)-ylidene)methyl)benzoidithiazol-3-ium iodide]
GST-P1-1 [4]; 90 nM GST-P1-1, after 30 min incubation
  turn-on fluorescence signal in the presence of GST-P1-1: 33 fold
GST-P1-1 [6]
  Kd: 29 nM
dsDNA
  fluorescence response to addition of dsDNA (FIG. 21e): negligible fluorescence responses
[2]
  localization of fluorescence in live MDA-MB-231 cells: distributed within the cell
Healthy MCF-10A cells
  emission signal in MCF-10A cells: much weaker emission signal
